Test system: DNA fragment of 450 mer
Assay: DNA alkylation experiment analysed by polyacrylamide gel electrophoresis
Type: biochemical
Experimental: (1) An DNA alkylation experiment was conducted using the above-synthesized Ac-Im-Py-β-ala-CO-Du86.
(2) A similar experiment was conducted by using Im-Im-β-ala-Py-Py-β-ala-CO-Du86. In this case, it was clarified that two imidazole portions recognized guanine in a DNA to cause a sequence-specific DNA alkylation.
(3) A similar experiment was conducted by using Ac-Im-Py-Py-γ-butyl-Py-Py-β-ala-Du86. A pyrrole-imidazole polyamide portion of this compound has a hairpin structure, and one molecule of this compound can recognize both of double strands of a DNA. Though it is known that a Py-Py pair selectively recognizes AT or TA, a Im-Py pair selectively recognizes GC, and a Py-Im pair selectively recognizes CG when the hairpin compound is combined with a DNA in accordance with the Dervan's rule, this compound includes a new pair of β-alanine pair-Im for the molecular recognition. Therefore, a new molecular recognition rule can be discovered using this compound. Accordingly, a DNA alkylation experiment was conducted to confirm the possibility. Results of the experiment are shown in FIG. 3 (DNA: pUC18III 70 nM; Reagent Concentration: 10 nM to 500 nM, 5 samples; Reaction Conditions: sodium phosphate buffer solution (1.46 mM), 37° C., 8 hours).

[1] = DNA fragment of 450 mer, polyacrylamide gel electrophoresis (FIG. 1, FIG. 2)

Compound | DNA sequence recognized and base alkylated (sequence-specific DNA alkylation) [1] | DNA sequence recognized and base alkylated (sequence-specific DNA alkylation) (DNA: pUC18III 70 nM, reagent 10 nM to 500 nM, sodium phosphate buffer solution (1.46 mM), 37° C., 8 hours (FIG. 3))
Im-Im-β-ala-Py-Py-β-ala-CO-Du86 | recognized 5′-GGAGAAA-3′ and alkylated adenine of 3′-end | 
COC(=O)c1c(C)[nH]c2c1C13CC1CN(C(=O)CCNC(=O)c1cc(NC(=O)c4nc(NC(C)=O)cn4C)cn1C)C3=CC2=O (stereo not drawn) [Ac-Im-Py-β-ala-CO-Du86] | recognized 5′-TAAA-3′ and alkylated adenine of 3′-end | 
COC(=O)c1c(C)[nH]c2c1[C@]13C[C@H]1CN(C(=O)CCNC(=O)c1cc(NC(=O)c4cc(NC(=O)CCCNC(=O)c5cc(NC(=O)c6cc(NC(=O)c7cc(NC(C)=O)cn7C)cn6C)cn5C)cn4C)cn1C)C3=CC2=O [Ac-Im-Py-Py-γ-butyl-Py-Py-β-ala-Du86, Ac-Im-Py-Py-γ-butyl-Py-Py-β-ala-CO-Du86] |  | recognizes 5′-(A/T)(A/T)(A/T)C(A/G)-3′ portion to selectively alkylates adenine of the 3′-end

Source: US7067622B2, “Method of the solid phase synthesis of pyrrole-imidazole polyamide” (Japan Science and Technology Agency, priority 2001, dated 2006)
